The values that follow are results of earlier work, collected in US20130023590A1, “AQUEOUS COMPOSITIONS COMPRISING RESVERATROL AND METHODS FOR MAKING THEM” (priority 2011, published 2013).

In one data set the test system is yeast. The note with it: in the absence of caloric restriction.
The conditions of data set [1]: oral, humans.
For data set [2] the following is noted: for solubility in water: with heating.

Like-named read-outs stand apart in the source and are kept apart here.

With `Oc1ccc(C=Cc2cc(O)cc(O)c2)cc1` [resveratrol, 3,4′,5-trihydroxystilbene], the “extension of replicative lifespan of yeast” value in the data set with yeast is reported as 70%. For the same compound, the bioavailability entry in data set [1] is listed as “very low”. Further, the “solubility in organic solvents” value in data set [2] (ethanol, dimethyl sulfoxide or dimethyl formamide) is “approximately 65 mg/ml”. Moreover, the results for the solubility in water in data set [2] (Sigma-Aldrich Product Information Sheet) and in data set [2] (same value restated in ppm) were 3 mg/100 ml and 30 ppm, respectively.
